Data from US7078407B2, “4-hydroxycinnamamide derivatives as antioxidants and pharmaceutical compositions containing them” (Korea Research Institute of Chemical Technology, priority 2001, dated 2006).

Legend:
[1] = test system: lipid peroxidation in brain homogeneous substance; assay: Antioxidation activation test: lipid peroxidation assay (TBARS/MDA) in brain homogenate with FeCl2/ascorbic acid; type: biochemical, SD rat; conditions: for IC50: 50% inhibitory concentration of lipid peroxidation (TBARS at 520 nm), rat brain homogenate, FeCl2/ascorbic acid; for antioxidation activity increased compared with the prior antioxidation activator BHT: relative to BHT IC50 of Table 4
Method: After decapitating a SD rat (male, 10–12 weeks old) and rapidly extracting the brain, 10 mM Tris-HCl buffer solution (pH 7.4) containing 150 mM KCl is added to 10 ml/brain and homogenated. Then, the homogenated brain mixture is centrifuged for 10 minutes at 2,200 rpm, 4° C., and the upper layer is collected through protein assay. The exact amount of protein is measured and kept at −20° C.
250 μl of brain homogeneous substance (5 mg protein/ml), 10 μl of sample substance, 20 μl of buffer solution is divided at the 96-well micro plate one by one, and cultured for 20 minutes at 37° C. under a shaking condition. Then, 10 μl of 20 μM FeCl2 and 250 μM ascorbic acid is respectively added to the mixture and cultured for 30 minutes at 37° C. After completing the reaction by adding 50 μl of 35% HClO4 to the mixture, the micro plate is centrifuged for 10 minutes at 2,000 rpm, 4° C., and only the upper layer is transferred to the 96-well micro plate in an amount of 240 μl, and then, 120 μl of TBA (thiabarbituric acid; 5 mg/ml in 50% acetic acid) is added to the mixture. After reacting the micro plate for an hour at 80° C., it is cooled at room temperature, and the optical density of the thus obtained TBARS (thiobarbituric acid reactive substances, MDA) is measured at 520 nm.
The assay response curve of TBARS obtained using tetraethoxypropane, a reaction substance of TBA is used in calculating the amount of reaction product MDA of the sample substance, and the oxidation inhibition effect of the test drug is obtained by the following equation 1. Further, the 50% inhibitory concentration (IC50) is obtained using the dose response curve.
wherein, A is the concentration (nmol) of the control protein (MDA/mg), and
B is the concentration (nmol) of the experiment protein (MDA/mg).

SMILES | IC50 [1] [nM] | melting point [°C] | antioxidation activity increased compared with the prior antioxidation activator BHT [1] [%]
Cc1cc(C(C)(C)C)c(O)c(C(C)(C)C)c1 [BHT, tert-butyl-hydroxytoluene, reference compound] | 2090 |  | 
CCCCOc1cc(/C=C/C(=O)NCCc2cc(C(C)(C)C)c(O)c(C(C)(C)C)c2)cc(OCCCC)c1O [Example 1, 3-(3,5-dibutoxy-4-hydroxyphenyl)-N-[2-(3,5-di-t-butyl-4-hydroxyphenyl)ethyl]acrylamide] |  | 82 to 85 | 
CCC(CC)Oc1cc(/C=C/C(=O)NCc2cc(C(C)(C)C)c(O)c(C(C)(C)C)c2)cc(OC(CC)CC)c1O [Example 4, 3-[3,5-bis-(1-ethylpropoxy)-4-hydroxyphenyl]-N-(3,5-di-t-butyl-4-hydroxybenzyl)acrylamide] |  | 75 to 80 | 
CCCCCCOc1cc(/C=C/C(=O)Nc2ccccc2O)cc(OCCCCCC)c1O [Example 6, 3-(3,5-bishexyloxy-4-hydroxyphenyl)-N-(2-hydroxyphenyl)acrylamide] |  | 137 to 140 | 
CCCCCCCCCOc1cc(CN2CCN(CC(O)c3ccc(Cl)cc3)CC2)cc(OCCCCCCCCC)c1O (stereo not shown) [Example 8, 4-{4-[2-(4-chlorophenyl)-2-hydroethyl]piperazine-1-ylmethyl}-2,6-bis-nonyloxyphenol] | 1530 |  | 27
CCCCCCOc1cc(C=CC(=O)N2CCN(CC(O)c3ccc(F)cc3)CC2)cc(OCCCCCC)c1O (stereo not shown) [Example 12, 3-(3,5-bis-hexyloxy-4-hydroxyphenyl)-1-{4-[2-(4-fluorophenyl)-2-hydroxyethyl]piperazine-1-yl}propenone] | 260 |  | 88
CCCCOc1cc(CCC(=O)N2CCN(CC(O)c3ccc(Cl)cc3)CC2)cc(OCCCC)c1O (stereo not shown) [Example 15, 1-{4-[2-(4-chlorophenyl)-2-hydroxyethyl]piperazine-1-yl}-3-(3,5-dibutoxy-4-hydroxyphenyl)propane-1-one] | 910 |  | 56
CC(C)(C)c1cc(/C=C/C(=O)N2CCN(c3ccc(NC(=N)c4cccs4)cc3)CC2)cc(C(C)(C)C)c1O [Example 16, N-(4-(4-[3-(3,5-di-t-butyl-4-hydroxy-phenyl)-acryloyl]-piperizine-lyl}-phenyl)-thiophene-2-carboxamidine] | 510 |  | 
CCC(CC)Oc1cc(/C=C/C(=O)N2CCN(c3ccc(NC(=N)c4cccs4)cc3)CC2)cc(OC(CC)CC)c1O [Example 17] | 470 | 170 to 171 | 
CCCOc1cc(/C=C/C(=O)N2CCN(c3ccc(NC(=N)c4cccs4)cc3)CC2)cc(OCCC)c1O [Example 18, N-(4-{4-[3-(4-hydroxy-3,5-dipropoxy-phenyl)-acryloyl]-piperazine-1-yl}-phenyl)-thiophene-2-carboxamidine] | 490 |  | 
CCCCOc1cc(/C=C/C(=O)N2CCN(c3ccc(NC(=N)c4cccs4)cc3)CC2)cc(OCCCC)c1O [Example 19, N-(4-{4-[3-(3,5-dibutoxy-4-hydroxy-phenyl)-acryloyl]-piperazine-1-yl}-phenyl)-thiophene-2-carboxamidine] |  | 99 to 102 | 82
CC(C)(C)c1cc(/C=C/C(=O)N2CCN(c3ccc(NC(=N)c4ccc[nH]4)cc3)CC2)cc(C(C)(C)C)c1O [Example 21, N-(4-{4-[3-(3,5-di-t-butyl-4-hydroxy-phenyl)-acryloyl]-piperazine-1-yl}-phenyl)-1H-pyrrole-2-carboxamidine] |  | 149 to 167 | 
CCCCOc1cc(/C=C/C(=O)N2CCN(c3ccc(NC(=N)c4ccc[nH]4)cc3)CC2)cc(OCCCC)c1O [Example 22, N-(4-{4-[3-(3,5-dibutoxy-4-hydroxy-phenyl)-acryloyl]-piperazine-1-yl}-phenyl)-1H-pyrrole-2-carboxamidine] | 370 |  | 82
CCCCCOc1cc(/C=C/C(=O)N2CCN(c3ccc(NC(=N)c4ccc[nH]4)cc3)CC2)cc(OCCCCC)c1O [Example 23, N-(4-{4-[3-(4-hydroxy-3,5-bis-penyloxy-phenyl)-acryloyl]-piperazine-1-yl}-phenyl)-1H-pyrrole-2-carboxamidine] | 450 | 109 to 116 | 
CCCCCCCOc1cc(/C=C/C(=O)N2CCN(c3ccc(NC(=N)c4ccc[nH]4)cc3)CC2)cc(OCCCCCCC)c1O [Example 24, N-(4-{4-[3-(3,5-bis-heptyloxy-4-hydroxy-phenyl)-acryloyl]-piperazine-1-yl}-phenyl)-1H-pyrrole-2-carboxamidine] |  | 100 to 145 | 
